# Values quoted from earlier work in US8513439B2, “Antidepressant oral pharmaceutical compositions” (Wockhardt Limited, priority 2005, dated 2013).
# Experiments:
# dopaminergic receptors = settings: in vitro
# adrenergic receptors = settings: in vitro
# cholinergic receptors = settings: in vitro
# histaminergic receptors = settings: in vitro
# [1] = in vivo
structure (smiles),measurement,setting,value
"CNCC[C@H](Oc1cccc2ccccc12)c1cccs1 [Duloxetine, (S)—N-methyl-3-(1-naphthyloxy)-3-(2-thienyl)propan-1-amine]",affinity for dopaminergic receptors,dopaminergic receptors,no significant affinity
same,affinity for adrenergic receptors,adrenergic receptors,no significant affinity
same,affinity for cholinergic receptors,cholinergic receptors,no significant affinity
same,affinity for histaminergic receptors,histaminergic receptors,no significant affinity
same,inhibition of monoamine oxidase (MAO),monoamine oxidase (MAO),does not inhibit
same,dosage hydrolyzed to 1-naphthol,"pH of 1.0, within one hour",50%
same,dosage degraded to 1-Naphthol,"pH of 2.0, in one hour",10%
same,time for 10% degradation,pH of 4.0,up to 63 hours
same,enzymes metabolizing to inactive metabolites in the liver,[1],CYP1A2 and CYP2D6
same,protein bound,[1],> 90%
